Key:
MMP9 = MMP9 immunoblot and gelatin zymography in HaCaT cells under high glucose; type: cell-based, human; details: HG HaCaT cells, 5 μmol/L SF or 20 μmol/L CA
Method: Human immortalized keratinocytes HaCaT were obtained from the Arizona Cancer Center (see, e.g., Boukamp P, et al., J Cell Biol 106:761-771, 1988). Cells were grown in Dulbecco's modified Eagle's medium (DMEM) containing low glucose (LG, 5.5 mmol/L) and 10% fetal bovine serum (FBS) in an incubator at 37° C. with 5% CO2. For the experiments, the cells were starved in serum-free LG DMEM for 24 h, then either maintained in LG DMEM or switched to high glucose (HG, 25 mmol/L) DMEM for 2 days (see, e.g., Zheng H, et al., Diabetes 60:3055-3066, 2011; Lan C C, et al., Br J Dermatol 159:1103-1115, 2008). For the treatments, the cells were dosed with 5 μmol/L SF or 20 μmol/L CA.
siRNA transfections. […]
Cultured HaCaT cells were harvested in 1× sample buffer (50 mM Tris-HCl pH 6.8, 2% sodium dodecyl sulfate (SDS), 10% glycerol, 100 mM dithiothreitol (DTT), 0.1% bromophenol blue), boiled and sonicated. […] TGF-β1 was measured using the Quantikine human TGF-β1 immunoassay kit (R&D systems; Minneapolis, Minn.) according to the manufacturer's instructions. The absorbance at 450 nm was measured using a Synergy 2 microplate reader (BioTek, Winooski, Vt.) and the amount of TGF-β1 was calculated by standard curve. MMP9 activity was evaluated by gelatin zymography as described elsewhere (see, e.g., Toth M, et al., Methods Mol Biol 878:121-135, 2012; Zhu P, et al., Exp Dermatol 21:123-129, 2012). […]

[1] = Digital infrared thermal imaging of wounds in STZ mice; type: in vivo, mouse; details: exaggerated gradient vs Con group
Method: Diabetes mouse model and treatments. […] Briefly, three weeks after STZ injections, fasting glucose levels (FGL, 4 h fast) were measured using the AlphaTRAK system (Abbott Laboratory, North Chicago, Ill.) and mice with a FGL higher than or equal to 250 mg/dL were considered diabetic and included in the study (see, e.g., FIG. 2A and FIG. 3A for a detailed timeline). The mice (n=5-8) were then allocated randomly to each of the indicated treatment groups and received corn oil (control), 12.5 mg/kg SF or 50 mg/kg CA intraperitoneally every two days until skin tissues were harvested. One week after the treatments, the mice were anesthetized, their backs were shaved and cleaned. Two wounds were made with a sterile 6 mm skin biopsy punch (Health link, Jacksonville, Fla.) and covered with 3M Tegaderm pads. The wounds were photographed using an in vivo imaging system and an infrared integrated system (IRISYS, Northampton, UK) for 14 days. Gross wound closure was quantified by ImageJ software, and wound healing was expressed as the percentage of the original wound area that had healed. The tissues were collected using an 8 mm skin biopsy punch; one half was fixed in 10% buffered formalin and embedded in paraffin while the other half was used for protein extraction. […]

wound skin tissues = assay: Apoptosis by TUNEL in wound skin tissues of STZ mice; type: in vivo, mouse
Description: Diabetes mouse model and treatments. Nrf2^+/+ and Nrf2^-/- C57BL/6 mice were described previously (see, e.g., Jiang T, et al., Diabetes 59:850-860, 2010) and were housed and handled in accordance with the University of Arizona Institutional Animal Care policies. The STZ-induced diabetic model was previously described (see, e.g., Zheng H, et al., Diabetes 60:3055-3066, 2011) and only 8 week old male mice were included in this study. Briefly, three weeks after STZ injections, fasting glucose levels (FGL, 4 h fast) were measured using the AlphaTRAK system (Abbott Laboratory, North Chicago, Ill.) and mice with a FGL higher than or equal to 250 mg/dL were considered diabetic and included in the study (see, e.g., FIG. 2A and FIG. 3A for a detailed timeline). […] Gross wound closure was quantified by ImageJ software, and wound healing was expressed as the percentage of the original wound area that had healed. […] ROS were measured in HaCaT cells using DCF. […] Then, 48 h later, the cells were switched into fresh medium containing 10 μg/mL DCF, incubated 30 min, and fluorescence intensity was measured by flow cytometry. […] For this, 8000 HaCaT cells/well were seeded in LG or HG media, with or without an NRF2 activator, and cell growth was monitored for 72 h. […]

Row | SMILES | expression and activity of MMP9 (MMP9) | temperature gradients (ΔT) between wound area and surrounding healthy tissue [1] | apoptosis (TUNEL) (wound skin tissues)
1 | C[S@@+]([O-])CCCCN=C=S [SF, L-sulforaphane] | decreased | abolished this effect | reduced apoptosis to a lesser extent than in Con
2 | O=CC=Cc1ccccc1 [CA, Cinnamaldehyde] | decreased | abolished this effect | reduced apoptosis to a lesser extent than in Con

Reference: patent US20180344680A1, “COMPOSITIONS AND METHODS FOR TREATMENT, AMELIORATION, AND PREVENTION OF DIABETES-RELATED SKIN ULCERS” (THE ARIZONA BOARD OF REGENTS ON BEHALF OF THE UNIVERSITY OF …, priority 2015, published 2018)
